{"source": "paper PMC11484861", "about": "(Nature Communications, 2024)", "system": "SARS-CoV-2 M protein level", "assay_type": "cell-based, human", "data": [{"smiles": "CCN(CC)CCCC(C)Nc1ccnc2cc(Cl)ccc12", "note": "(stereo not drawn) [CQ, chloroquine]", "values": [{"measurement": "IMβ3-5-promoted degradation of M, VP2 and PB1-F2", "value": "blocked"}, {"measurement": "decrease in M protein levels induced by SQSTM1", "value": "rescued"}]}, {"smiles": "COC[C@H]1OC(=O)c2coc3c2[C@@]1(C)C1=C(C3=O)[C@@H]2CCC(=O)[C@@]2(C)C[C@H]1OC(C)=O", "note": "[wortmannin]", "values": [{"measurement": "decrease in M protein levels induced by SQSTM1", "value": "rescued"}]}]}
